In this assay the test system is CD2F1 mice, L1210 leukemia ip, survival T/C. Put plainly: NCI In Vivo Anticancer Drug Screen. Data for tumor model L1210 Leukemia (intraperitoneal) in CD2F1 (CDF1) mice. The settings on record: higher = longer survival. An outline of the steps:
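Compound-dosed mice with transplantable tumor versus matched vehicle controls; endpoint ratio T/C reported.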

Setting [1] is: endpoint: mean survival time, dose: 100.0 mg/kg/injection, schedule: Q04DX003 (ip), vehicle: saline with Tween-80.
[2] abbreviates: endpoint: mean survival time, dose: 200.0 mg/kg/injection, schedule: Q04DX003 (ip), vehicle: saline with Tween-80.
The mark [3] stands for this setting: endpoint: mean survival time, dose: 50.0 mg/kg/injection, schedule: Q01DX001 (ip), vehicle: saline with Tween-80.
Setting [4] is: endpoint: mean survival time, dose: 100.0 mg/kg/injection, schedule: Q01DX001 (ip), vehicle: saline with Tween-80.
The mark [5] stands for this setting: endpoint: mean survival time, dose: 200.0 mg/kg/injection, schedule: Q01DX001 (ip), vehicle: saline with Tween-80.
Where [6] appears, read: endpoint: mean survival time, dose: 400.0 mg/kg/injection, schedule: Q04DX003 (ip), vehicle: saline with Tween-80.
The mark [7] stands for this setting: endpoint: mean survival time, dose: 100.0 mg/kg/injection, schedule: Q01DX009 (ip), vehicle: saline with Tween-80.
The mark [8] stands for this setting: endpoint: mean survival time, dose: 200.0 mg/kg/injection, schedule: Q01DX009 (ip), vehicle: saline with Tween-80.
The mark [9] stands for this setting: endpoint: mean survival time, dose: 400.0 mg/kg/injection, schedule: Q01DX009 (ip), vehicle: saline with Tween-80.
The mark [10] stands for this setting: endpoint: mean survival time, dose: 75.0 mg/kg/injection, schedule: Q01DX001 (ip), vehicle: saline.
Setting [11] is: endpoint: mean survival time, dose: 150.0 mg/kg/injection, schedule: Q01DX001 (ip), vehicle: saline.
[12] abbreviates: endpoint: mean survival time, dose: 300.0 mg/kg/injection, schedule: Q01DX001 (ip), vehicle: saline.

This is an account of results in PubChem BioAssay AID256 (DTP/NCI, 2004).

Where “and” joins values, the source holds several entries; their conditions need not be identical. Equal values may be shown once. Toxic doses and inconclusive results are not listed.

Turning to `Nc1ccc2c(c1)[nH]c1ccccc12`, the T/C runs as follows: under setting [1], 93 % of control; under setting [2], 101 % of control.
For `Cn1c(=O)c2c(ncn2C(C(N)=O)C(N)=O)n(C)c1=O`, the T/C is 106 % of control (endpoint: mean survival time, dose: 200.0 mg/kg/injection, schedule: Q01DX005 (ip), vehicle: distilled water + Tween-80) and 100 % of control (endpoint: mean survival time, dose: 400.0 mg/kg/injection, schedule: Q01DX005 (ip), vehicle: distilled water + Tween-80).
Turning to `CC(=O)NC1C(OC(C)=O)OC(COC(C)=O)C(OC(C)=O)C1OC(C)=O` (stereo not drawn), the T/C is 101 % of control under setting [3], 95 % of control under setting [4] and 98 % of control under setting [5].
On to `O=C1c2ccccc2S(=O)(=O)c2cccc(S(=O)(=O)c3ccccc3)c21`, for which the T/C is 98 % of control under setting [1], 95 % of control under setting [2] and 90 % of control under setting [6].
`CC(=O)N1C2=CCCC3CCCCC23c2ccccc21` (stereo not drawn): the T/C by setting is: under setting [7], 103 % of control; under setting [1], 96 % of control; under setting [8], 101 % of control; under setting [2], 92 % of control; under setting [9], 98 % of control; under setting [6], 101 % of control.
Turning to `CC(C#N)(Nc1ccccc1)c1ccccc1` (stereo not drawn), the T/C runs as follows: (endpoint: mean survival time, dose: 100.0 mg/kg/injection, schedule: Q04DX003 (ip), vehicle: saline) 102 % of control; (endpoint: mean survival time, dose: 200.0 mg/kg/injection, schedule: Q04DX003 (ip), vehicle: saline) 103 % of control; (endpoint: mean survival time, dose: 400.0 mg/kg/injection, schedule: Q04DX003 (ip), vehicle: saline) 96 % of control.
Turning to `CCOC(=O)C1(C(=O)OCC)C(C)CC(O)N1C(=O)c1cc2c(cc1[N+](=O)[O-])OCO2` (stereo not drawn), the T/C was 100 % of control (endpoint: mean survival time, dose: 100.0 mg/kg/injection, schedule: Q01DX001 (ip), vehicle: Klucel (hydroxypropylcellulose) (HPC)); 100 % of control (endpoint: mean survival time, dose: 200.0 mg/kg/injection, schedule: Q01DX001 (ip), vehicle: Klucel (hydroxypropylcellulose) (HPC)); 104 % of control (endpoint: mean survival time, dose: 400.0 mg/kg/injection, schedule: Q01DX001 (ip), vehicle: Klucel (hydroxypropylcellulose) (HPC)).
Take `CCOC(=O)c1c(-c2ccccc2)csc1NS(=O)(=O)c1ccc(C)cc1`: the T/C by setting is: under setting [10], 96 % of control; under setting [11], 90 % of control; under setting [12], 101 % of control.
In the case of `O=P1(O)c2ccccc2Nc2ccccc21`, the T/C (endpoint: mean survival time, dose: 50.0 mg/kg/injection, schedule: Q01DX009 (ip), vehicle: Klucel (hydroxypropylcellulose) (HPC)) is 104 % of control; the T/C (endpoint: mean survival time, dose: 100.0 mg/kg/injection, schedule: Q01DX009 (ip), vehicle: Klucel (hydroxypropylcellulose) (HPC)) is 93 % of control; the T/C (endpoint: mean survival time, dose: 200.0 mg/kg/injection, schedule: Q01DX009 (ip), vehicle: Klucel (hydroxypropylcellulose) (HPC)) was 108 % of control.
For `CCCC1CC[N-]CC1.CCCC1CC[N-]CC1.CCCC1CC[N-]CC1.CCCC1CC[N-]CC1.[Cl][Rh][Cl]`, the T/C (endpoint: mean survival time, dose: 25.0 mg/kg/injection, schedule: Q04DX003 (ip), vehicle: saline with Tween-80) was 90 % of control.
Take `CN(C)S(=O)(=O)Oc1cccc([N+](=O)[O-])c1`: the T/C under setting [1] was 96 % of control.
As for `COc1ccc2ccccc2c1`, the T/C runs as follows: under setting [4], 101 % of control; (endpoint: mean survival time, dose: 100.0 mg/kg/injection, schedule: Q04DX003 (ip), vehicle: other) 100 % of control; under setting [5], 100 % of control; (endpoint: mean survival time, dose: 200.0 mg/kg/injection, schedule: Q04DX003 (ip), vehicle: other) 104 % of control; (endpoint: mean survival time, dose: 400.0 mg/kg/injection, schedule: Q01DX001 (ip), vehicle: saline with Tween-80) 111 % of control.
`O=S(=O)(c1ccc(NC(=S)N/N=C/c2ccccc2O)cc1)N1CCCCC1`: the T/C runs as follows: (endpoint: mean survival time, dose: 12.5 mg/kg/injection, schedule: Q01DX009 (ip), vehicle: olive oil, sesame oil, peanut oil) 98 % of control; (endpoint: mean survival time, dose: 25.0 mg/kg/injection, schedule: Q01DX009 (ip), vehicle: olive oil, sesame oil, peanut oil) 94 % of control; (endpoint: mean survival time, dose: 50.0 mg/kg/injection, schedule: Q01DX009 (ip), vehicle: olive oil, sesame oil, peanut oil) 102 % of control; (endpoint: mean survival time, dose: 100.0 mg/kg/injection, schedule: Q01DX009 (ip), vehicle: olive oil, sesame oil, peanut oil) 104 % of control; (endpoint: mean survival time, dose: 200.0 mg/kg/injection, schedule: Q01DX009 (ip), vehicle: olive oil, sesame oil, peanut oil) 94 % of control; (endpoint: mean survival time, dose: 400.0 mg/kg/injection, schedule: Q01DX009 (ip), vehicle: olive oil, sesame oil, peanut oil) 96 % of control.
Regarding `CCNC(=O)C(C)Br` (stereo not drawn), the T/C is 97 % of control (endpoint: mean survival time, dose: 100.0 mg/kg/injection, schedule: Q01DX001 (ip), vehicle: saline) and 106 % of control (endpoint: mean survival time, dose: 200.0 mg/kg/injection, schedule: Q01DX001 (ip), vehicle: saline).
With `COc1ccc(NC(=O)c2ccc(C(=O)Nc3ccc(OC)cc3)cc2)cc1`, the T/C (endpoint: mean survival time, dose: 100.0 mg/kg/injection, schedule: Q01DX009 (ip), vehicle: saline) was 96 % of control; the T/C (endpoint: mean survival time, dose: 200.0 mg/kg/injection, schedule: Q01DX009 (ip), vehicle: saline) was 90 % of control; the T/C (endpoint: mean survival time, dose: 400.0 mg/kg/injection, schedule: Q01DX009 (ip), vehicle: saline) is 98 % of control.
For `CCC(c1ccc(O)c(C2CCCCC2)c1)C(CC)c1ccc(OC(=O)c2ccccc2)c(C2CCCCC2)c1` (stereo not drawn), the T/C under setting [10] was 109 % of control, the T/C under setting [11] is 100 % of control and the T/C under setting [12] was 106 % of control.
Take `COc1cc([C@@H]2c3cc4c(cc3[C@H](O)[C@H]3COC(=O)[C@H]23)OCO4)cc(OC)c1OC`: the T/C (endpoint: median survival time, dose: 0.62 mg/kg/injection, schedule: Q01DX009 (ip), vehicle: saline with Tween-80) is 122 % of control; the T/C (endpoint: median survival time, dose: 0.63 mg/kg/injection, schedule: Q01DX009 (ip), vehicle: saline with Tween-80) is 112 % of control; the T/C (endpoint: median survival time, dose: 1.0 mg/kg/injection, schedule: Q01DX005 (ip), vehicle: Klucel (hydroxypropylcellulose) (HPC)) is 124 % of control; the T/C (endpoint: median survival time, dose: 1.25 mg/kg/injection, schedule: Q01DX009 (ip), vehicle: saline with Tween-80) was 116 % of control and 120 % of control; the T/C (endpoint: median survival time, dose: 1.8 mg/kg/injection, schedule: Q01DX009 (ip), vehicle: saline with Tween-80) was 122 % of control; the T/C (endpoint: median survival time, dose: 2.0 mg/kg/injection, schedule: Q01DX005 (ip), vehicle: Klucel (hydroxypropylcellulose) (HPC)) was 118 % of control. In addition, the T/C (endpoint: median survival time, dose: 2.5 mg/kg/injection, schedule: Q01DX009 (ip), vehicle: saline with Tween-80) is 122 % of control; the T/C (endpoint: median survival time, dose: 10.0 mg/kg/injection, schedule: Q01DX009 (ip), vehicle: saline with Tween-80) is 115 % of control and 111 % of control; the T/C (endpoint: median survival time, dose: 13.89 mg/kg/injection, schedule: Q01DX009 (ip), vehicle: saline with Tween-80) was 155 % of control.
As to `CCCCOc1ccc(/C=N\NC(=O)CNC(=O)Nc2ccc(F)cc2)cc1`, the T/C runs as follows: (endpoint: mean survival time, dose: 50.0 mg/kg/injection, schedule: Q01DX009 (ip), vehicle: saline with Tween-80) 92 % of control; under setting [7], 88 % of control; under setting [8], 88 % of control.
As for `Cc1ccc(NC(=O)N(CCCl)N=O)cc1Cl`, the T/C (endpoint: mean survival time, dose: 13.0 mg/kg/injection, schedule: Q01DX001 (ip), vehicle: carboxymethylcellulose (CMC)) was 176 % of control.
Consider `O=C1CSCc2c1ccc1ccccc21`, for which the T/C by setting is: under setting [7], 98 % of control; under setting [8], 95 % of control; under setting [9], 96 % of control.
For `OC1(c2ccccc2)c2cc(-c3ccccc3)c(-c3ccccc3)cc2C(c2ccccc2)(c2ccccc2)C1(O)c1ccccc1` (stereo not drawn), the T/C under setting [3] is 96 % of control, the T/C under setting [4] was 96 % of control and the T/C under setting [5] is 96 % of control.
